Source: patent publication US8686044B2, “Amide derivative, pest control agent containing the amide derivative, and use of the amide derivative” (Mitsui Chemicals Agro, Inc., priority 2008, dated 2014)

How the values were obtained:
Assay type in all cases: in vivo
[1] = test system: Plutella xylostella; experiment: Pesticidal test against Plutella xylostella (cabbage leaf dip); conditions: foliar, 144 h, concentration 1 ppm, 2-stage larvae, examined after 6 days, 25° C., read-out: pesticidal rate
How it was run: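 Second-stage larvae (5 per group, two replicates) were released onto air-dried cabbage leaf discs that had been immersed for 30 seconds in compound solution at a set concentration. Mortality was scored after 6 days at 25° C.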

[2] = test system: Ctenocephalides Felis; experiment: Insecticidal test for Ctenocephalides felis, Test Example 1 (dry film in glass tube, 0.5 ml, Table A4); conditions: adults; for pest or weed control at 0.1 µg/mL: Ctenocephalides felis, concentration 0.1 μg/ml, after 24 hours of the exposure, in triplicate, read-out: death rate
Method: Insecticidal Test for Ctenocephalides Felis
0.5 ml of a solution of acetone, the active ingredient, prepared to the prescribed concentration was added dropwise to a glass tube with a flat bottom (internal diameter: 2.6 cm, bottom area: 5.3 cm^2, height: 12 cm), and the solvent was evaporated at room temperature to form a dry film of the agent on the bottom surface. About 10 adults of Ctenocephalides Felis per glass tube were added, and the adults were contact-exposed to the test compound. After 24 hours of the exposure, the conditions of the adults were examined and classified into “alive” and “dead (including a moribund condition)” to determine the death rate (in triplicate).
As the comparative compounds, the following Compounds (A), (B), and (C) disclosed in WO2009/080203, and fipronil were used.

[3] = test system: Helicoverpa armigera; experiment: Pesticidal test against Helicoverpa armigera (cabbage leaf disk dip); conditions: foliar, 72 h, concentration 1 ppm, 2-stage larvae, examined after 3 days, 25° C., read-out: pesticidal rate
How it was run: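 Cabbage leaf disks were dipped for 30 s in test solution at a set concentration and air-dried. Second-instar larvae were placed one per hole and held at 25 °C, with live and dead counts taken after 3 days. Five larvae per group were tested in two replicates.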

[4] = test system: Spodoptera litura; experiment: Pesticidal test against Spodoptera litura (cabbage leaf dip); conditions: foliar, 144 h, concentration 1 ppm, 2-stage larvae, examined after 6 days, 25° C., read-out: pesticidal rate
How it was run: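 Cabbage leaf pieces dipped 30 seconds in compound solution at a predetermined concentration and air-dried, then offered to second-stage larvae, five per group in two replicates. Held at 25° C. Living and dead larvae counted after 6 days.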

[5] = test system: Coptotermes formosanus; experiment: Pesticidal test against Coptotermes formosanus (treated filter paper); conditions: 120 h, concentration 30 ppm, examined after 5 days of treatment, 28° C., read-out: pesticidal rate
Method: Pesticidal Test against Coptotermes formosanus
20 μl of an acetone solution in which a test compound had been prepared at a predetermined concentration was added dropwise to the filter paper having a diameter of […] included in a polypropylene cup, and air-dried, and then 20 μl of water was added thereto. Coptotermes formosanus was released and the cup was capped. They were left to stand in a thermostatic chamber at 28° C., and the numbers of the living pests and the dead pests were examined after 5 days of treatment. The test was carried out with ten larvae per group in two replicates.

[6] = test system: Rhipicephalus sanguineus; experiment: Insecticidal test for Rhipicephalus sanguineus (treated glass petri dish, Table A6); conditions: adults of Rhipicephalus sanguineus, 18 hour exposure, examined after 48 hours, in single
Method: Insecticidal Test for Rhipicephalus sanguineus
0.5 ml of a solution of acetone, the active ingredient, prepared to the prescribed dose was added dropwise into a glass petri dish with a diameter of 10 cm, and the acetone was evaporated at room temperature. About 10 adults of Rhipicephalus sanguineus per dish were added, and the dish was covered by another glass petri dish that was treated with the active ingredient in the same manner described above. After 18 hour exposure to the test substance, the adults were transferred into a glass petri dish that was not treated with the active ingredient. After 48 hours of the exposure, the conditions of the adults were examined and classified into “alive” and “dead (including a moribund condition)” to determine the death rate (in single).
As the comparative compounds, said Compounds (B), (C), and (D), and the following Compound (F) disclosed in WO2009/080203, and fipronil were used.

[7] = test system: Choristoneura magnanima; experiment: Pesticidal test against Choristoneura magnanima (artificial feed dip); conditions: 144 h, concentration 1 ppm, 2-stage larvae, examined after 6 days, 25° C., read-out: pesticidal rate
How it was run: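 Second-stage larvae, five per group in duplicate, fed artificial diet that had been immersed 30 s in test solution at a predetermined concentration and air-dried. Mortality scored at day 6, 25° C.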

[8] = test system: Blattella germanica; experiment: Pesticidal test against Blattella germanica (petri dish dry film); conditions: 24 h, concentration 100 ppm, female adults, examined after 1 day, 25° C., read-out: pesticidal rate
How it was run: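 Acetone solution of test compound at a predetermined concentration dried as a film in a 9 cm petri dish; female adult cockroaches released onto it and kept at 25° C. Living and dead counted after 1 day; five insects per group, two replicates.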

[9] = test system: Musca domestica; experiment: Pesticidal test against Musca domestica (petri dish dry film); conditions: 24 h, concentration 100 ppm, female adults, examined after 1 day, 25° C., read-out: pesticidal rate
How it was run: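 Female adult houseflies were confined at 25° C in capped 9 cm petri dishes coated with an air-dried film from 1 ml acetone solution of compound (predetermined concentration). Mortality was scored 1 day later, two replicates of five per group.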

## CN(C(=O)c1ccccc1)c1cccc(C(=O)Nc2c(Br)cc(C(F)(C(F)(F)F)C(F)(F)F)cc2C(F)(F)F)c1F [7-1574, N-(2-bromo-4-(perfluoropropan-2-yl)-6-(trifluoromethyl)phenyl)-2-fluoro-3-(N-methylbenzamide)benzamide]
[1]
  pest or weed control at 1 ppm: ≥ 70%
[2]
  pest or weed control at 0.1 µg/mL: 100%
[2]; compared with fipronil
  speed of effect as compared with the fipronil: immediate effect
[3]
  pest or weed control at 1 ppm: ≥ 70%
[4]
  pest or weed control at 1 ppm: ≥ 70%
[5]
  pest or weed control at 30 ppm: ≥ 70%
[6]; 0.0431 mg/m^2
  death rate: 10.0%
[6]; 0.0861 mg/m^2
  death rate: 100.0%
[6]; 0.172 mg/m^2
  death rate: 100.0%
[7]
  pest or weed control at 1 ppm: ≥ 70%
[8]
  pest or weed control at 100 ppm: ≥ 70%
[9]
  pest or weed control at 100 ppm: ≥ 70%

## CN(C(=O)c1ccc(F)cc1)c1cccc(C(=O)Nc2c(I)cc(C(F)(C(F)(F)F)C(F)(F)F)cc2C(F)(F)F)c1F [7-1733, 2-fluoro-3-(4-fluoro-N-methylbenzamide)-N-(2-iodo-4-(perfluoropropan-2-yl)-6-(trifluoromethyl)phenyl)benzamide]
[1]
  pest or weed control at 1 ppm: ≥ 70%
[2]
  pest or weed control at 0.1 µg/mL: 100%
[3]
  pest or weed control at 1 ppm: ≥ 70%
[4]
  pest or weed control at 1 ppm: ≥ 70%
[5]
  pest or weed control at 30 ppm: ≥ 70%
[6]; 0.0431 mg/m^2
  death rate: 0.0%
[6]; 0.0861 mg/m^2
  death rate: 80.0%
[6]; 0.172 mg/m^2
  death rate: 100.0%
[7]
  pest or weed control at 1 ppm: ≥ 70%
[8]
  pest or weed control at 100 ppm: ≥ 70%
[9]
  pest or weed control at 100 ppm: ≥ 70%
